Patent publication US10798941B2, “Microbiocidal oxadiazole derivatives” (SYNGENTA PARTICIPATIONS AG, priority 2016, dated 2020)

Experiments:
[1] = test system: Glomerella Lagenarium (Colletotrichum Lagenarium); test: Glomerella lagenarium (Colletotrichum lagenarium) liquid culture / cucumber / preventative (anthracnose); assay type: cell-based; details: Colletotrichum orbiculare; 20 ppm in the applied formulation; liquid culture in PDB, 24° C., inhibition of growth measured photometrically 3 to 4 days after application, vs untreated; read-out: disease control
Method in brief: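 Conidia from cryogenic storage were mixed into potato dextrose broth. This was added to compound diluted from DMSO into 0.025% Tween20, tested at 20 ppm. Plates were incubated in the dark at 24 °C and 96% relative humidity, and growth was read photometrically after 2–7 days as % activity versus untreated check.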

[2] = test system: Phakopsora pachyrhizi; test: Phakopsora pachyrhizi / soybean / leaf disc preventative (Asian soybean rust); assay type: in vivo; details: foliar, 288 h, 200 ppm in the applied formulation, soybean leaf disks, inoculated one day after application, assessed 12 to 14 days after application, vs untreated, read-out: disease control
Method: (§1) Leaf disks or leaf segments of various plant species are cut from plants grown in a greenhouse. The cut leaf disks or segments are placed in multiwell plates (24-well format) onto water agar. The leaf disks are sprayed with a test solution before (preventative) or after (curative) inoculation. Compounds to be tested are prepared as DMSO solutions (max. 10 mg/ml) which are diluted to the appropriate concentration with 0.025% Tween20 just before spraying. The inoculated leaf disks or segments are incubated under defined conditions (temperature, relative humidity, light, etc.) according to the respective test system. A single evaluation of disease level is carried out 3 to 14 days after inoculation, depending on the pathosystem. Percent disease control relative to the untreated check leaf disks or segments is then calculated.
Soybean leaf disks are placed on water agar in multiwell plates (24-well format) and sprayed with the formulated test compound diluted in water. One day after application leaf discs are inoculated by spraying a spore suspension on the lower leaf surface. After an incubation period in a climate cabinet of 24-36 hours in darkness at 20° C. and 75% rh leaf disc are kept at 20° C. with 12 h light/day and 75% rh. The activity of a compound is assessed as percent disease control compared to untreated when an appropriate level of disease damage appears in untreated check leaf disks (12 to 14 days after application).
(§2) The following compounds at 200 ppm in the applied formulation give at least 80% disease control in this test when compared to untreated control leaf disks under the same conditions, which show extensive disease development.

[3] = test system: Puccinia recondita f. Sp. Tritici; test: Puccinia recondita f. sp. tritici / wheat / leaf disc preventative (brown rust); assay type: in vivo; details: foliar, 168 h, 200 ppm in the applied formulation, wheat leaf segments cv. Kanzler, preventative, inoculated 1 day after application, assessed 7 to 9 days after application, vs untreated, read-out: disease control
Method in brief: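 Preventative leaf-segment test: spray application of diluted formulated compound on wheat cv. Kanzler, spore inoculation after 1 day. Percent control relative to untreated segments rated 7 to 9 days post-application, with incubation at 19° C, 75% relative humidity, 12 h photoperiod.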

[4] = test system: Puccinia recondita f. Sp. Tritici; test: Puccinia recondita f. sp. tritici / wheat / leaf disc curative (brown rust); assay type: in vivo; details: foliar, 144 h, 200 ppm in the applied formulation, wheat leaf segments cv. Kanzler, applied 1 day after inoculation, assessed 6 to 8 days after application, vs untreated, read-out: disease control
Method: as §1
Wheat leaf segments cv. Kanzler are placed on agar in multiwell plates (24-well format). The leaf segments are then inoculated with a spore suspension of the fungus. Plates were stored in darkness at 19° C. and 75% relative humidity. The formulated test compound diluted in water was applied 1 day after inoculation. The leaf segments were incubated at 19° C. and 75% relative humidity under a light regime of 12 hours light/12 hours darkness in a climate cabinet and the activity of a compound was assessed as percent disease control compared to untreated when an appropriate level of disease damage appears in untreated check leaf segments (6 to 8 days after application).
as §2

Which inhibition of growth at 20 ppm [1] does the source give for `FC(F)(F)c1ccn(Cc2ccc(-c3noc(C(F)(F)F)n3)cc2)n1` [Compound 1.21, 5-(trifluoromethyl)-3-[4-[[3-(trifluoromethyl)pyrazol-1-yl]methyl]phenyl]-1,2,4-oxadiazole] here?
Its inhibition of growth at 20 ppm is ≥ 80%.

What about the pest or weed control at 200 ppm [2] of the same compound?
The pest or weed control at 200 ppm was ≥ 80%.

And the pest or weed control at 200 ppm [3]?
The pest or weed control at 200 ppm was ≥ 80%.

How did the inhibition of growth at 20 ppm [1] turn out when `COC(=O)c1ncnn1Cc1ccc(-c2noc(C(F)(F)F)n2)cc1` [Compound 1.36, methyl 2-[[4-[5-(trifluoromethyl)-1,2,4-oxadiazol-3-yl]phenyl]methyl]-1,2,4-triazole-3-carboxylate] was run?
The inhibition of growth at 20 ppm was ≥ 80%.

And the pest or weed control at 200 ppm [2]?
The pest or weed control at 200 ppm was ≥ 80%.

And the pest or weed control at 200 ppm [4]?
Its pest or weed control at 200 ppm is ≥ 80%.

And the pest or weed control at 200 ppm [3]?
The pest or weed control at 200 ppm was ≥ 80%.

What does the source list for `N#Cc1ncn(Cc2ccc(-c3noc(C(F)(F)F)n3)cc2)n1` [Compound 1.40, 1-[[4-[5-(trifluoromethyl)-1,2,4-oxadiazol-3-yl]phenyl]methyl]-1,2,4-triazole-3-carbonitrile]?
inhibition of growth at 20 ppm [1]: ≥ 80%; pest or weed control at 200 ppm [2]: ≥ 80%; pest or weed control at 200 ppm [4]: ≥ 80%; pest or weed control at 200 ppm [3]: ≥ 80%

`COc1ccc(C(C)c2ccc(-c3noc(C(F)(F)F)n3)cc2)cn1` (stereo not drawn) [Compound 1.42, 3-[4-[1-(6-methoxy-3-pyridyl)ethyl]phenyl]-5-(trifluoromethyl)-1,2,4-oxadiazole] was tested. Which inhibition of growth at 20 ppm [1] did it give?
Its inhibition of growth at 20 ppm is ≥ 80%.

What about the pest or weed control at 200 ppm [2] of the same compound?
The pest or weed control at 200 ppm was ≥ 80%.

And the pest or weed control at 200 ppm [4]?
The pest or weed control at 200 ppm was ≥ 80%.

What about the pest or weed control at 200 ppm [3] of the same compound?
The pest or weed control at 200 ppm was ≥ 80%.

`COC(=O)c1ncn(Cc2ccc(-c3noc(C(F)(F)F)n3)cc2)c1C(=O)OC` [Compound 1.43, dimethyl 1-[[4-[5-(trifluoromethyl)-1,2,4-oxadiazol-3-yl]phenyl]methyl]imidazole-4,5-dicarboxylate] was tested. Which inhibition of growth at 20 ppm [1] did it give?
Its inhibition of growth at 20 ppm is ≥ 80%.

And the pest or weed control at 200 ppm [2]?
The pest or weed control at 200 ppm was ≥ 80%.

What about the pest or weed control at 200 ppm [4] of the same compound?
The pest or weed control at 200 ppm was ≥ 80%.

What about the pest or weed control at 200 ppm [3] of the same compound?
Its pest or weed control at 200 ppm is ≥ 80%.

Which results are given for `CC(=O)NCCc1cn(Cc2ccc(-c3noc(C(F)(F)F)n3)cc2)cn1` [Compound 1.156, N-[2-[1-[[4-[5-(trifluoromethyl)-1,2,4-oxadiazol-3-yl]phenyl]methyl]imidazol-4-yl]ethyl]acetamide]?
pest or weed control at 200 ppm [2]: ≥ 80%; pest or weed control at 200 ppm [4]: ≥ 80%; pest or weed control at 200 ppm [3]: ≥ 80%

With `N#Cc1cc2n(Cc3ccc(-c4noc(C(F)(F)F)n4)cc3)cccc-2n1` [Compound 1.157, 4-[[4-[5-(trifluoromethyl)-1,2,4-oxadiazol-3-yl]phenyl]methyl]pyrrolo[3,2-b]pyridine-2-carbonitrile] as the compound, how does the inhibition of growth at 20 ppm [1] read?
Its inhibition of growth at 20 ppm is ≥ 80%.

And the pest or weed control at 200 ppm [2]?
Its pest or weed control at 200 ppm is ≥ 80%.

What about the pest or weed control at 200 ppm [3] of the same compound?
The pest or weed control at 200 ppm was ≥ 80%.

How did the inhibition of growth at 20 ppm [1] turn out when `N#Cc1cc2ncccc2n1Cc1ccc(-c2noc(C(F)(F)F)n2)cc1` [Compound 1.158, 1-[[4-[5-(trifluoromethyl)-1,2,4-oxadiazol-3-yl]phenyl]methyl]pyrrolo[3,2-b]pyridine-2-carbonitrile] was run?
The inhibition of growth at 20 ppm was ≥ 80%.

And the pest or weed control at 200 ppm [2]?
Its pest or weed control at 200 ppm is ≥ 80%.

And the pest or weed control at 200 ppm [3]?
The pest or weed control at 200 ppm was ≥ 80%.

What does the source list for `Cc1cc(O)nn1Cc1ccc(-c2noc(C(F)(F)F)n2)cc1` [Compound 1.171, 5-methyl-1-[[4-[5-(trifluoromethyl)-1,2,4-oxadiazol-3-yl]phenyl]methyl]pyrazol-3-ol]?
inhibition of growth at 20 ppm [1]: ≥ 80%; pest or weed control at 200 ppm [2]: ≥ 80%; pest or weed control at 200 ppm [3]: ≥ 80%

Which results are given for `CCOC(=O)c1cc(C2CC2)n(Cc2ccc(-c3noc(C(F)(F)F)n3)cc2)n1` [Compound 1.186, ethyl 5-cyclopropyl-1-[[4-[5-(trifluoromethyl)-1,2,4-oxadiazol-3-yl]phenyl]methyl]pyrazole-3-carboxylate]?
inhibition of growth at 20 ppm [1]: ≥ 80%; pest or weed control at 200 ppm [2]: ≥ 80%; pest or weed control at 200 ppm [3]: ≥ 80%

Which results are given for `Cc1nc2ccc(C(F)(F)F)cc2n1Cc1ccc(-c2noc(C(F)(F)F)n2)cc1` [Compound 1.190, 3-[4-[[2-methyl-6-(trifluoromethyl)benzimidazol-1-yl]methyl]phenyl]-5-(trifluoromethyl)-1,2,4-oxadiazole]?
inhibition of growth at 20 ppm [1]: ≥ 80%; pest or weed control at 200 ppm [2]: ≥ 80%

`COC(=O)c1cccc2c1cnn2Cc1ccc(-c2noc(C(F)(F)F)n2)cc1` [Compound 1.193, methyl 1-[[4-[5-(trifluoromethyl)-1,2,4-oxadiazol-3-yl]phenyl]methyl]indazole-4-carboxylate] was tested. Which inhibition of growth at 20 ppm [1] did it give?
Its inhibition of growth at 20 ppm is ≥ 80%.

What about the pest or weed control at 200 ppm [2] of the same compound?
The pest or weed control at 200 ppm was ≥ 80%.

What about the pest or weed control at 200 ppm [3] of the same compound?
The pest or weed control at 200 ppm was ≥ 80%.

`N#Cc1nn(Cc2ccc(-c3noc(C(F)(F)F)n3)cc2)c2cc(F)ccc12` [Compound 1.194, 6-fluoro-1-[[4-[5-(trifluoromethyl)-1,2,4-oxadiazol-3-yl]phenyl]methyl]indazole-3-carbonitrile] was tested. Which inhibition of growth at 20 ppm [1] did it give?
The inhibition of growth at 20 ppm was ≥ 80%.

What about the pest or weed control at 200 ppm [2] of the same compound?
The pest or weed control at 200 ppm was ≥ 80%.

Which results are given for `Cc1ccc2c(nnn2Cc2ccc(-c3noc(C(F)(F)F)n3)cc2)c1C` [Compound 1.198, 3-[4-[(4,5-dimethylbenzotriazol-1-yl)methyl]phenyl]-5-(trifluoromethyl)-1,2,4-oxadiazole]?
inhibition of growth at 20 ppm [1]: ≥ 80%; pest or weed control at 200 ppm [2]: ≥ 80%

For `CCOC(=O)c1cn(Cc2ccc(-c3noc(C(F)(F)F)n3)cc2)nc1C(F)F` [Compound 1.204, ethyl 3-(difluoromethyl)-1-[[4-[5-(trifluoromethyl)-1,2,4-oxadiazol-3-yl]phenyl]methyl]pyrazole-4-carboxylate], which inhibition of growth at 20 ppm [1] is on record?
The inhibition of growth at 20 ppm was ≥ 80%.

And the pest or weed control at 200 ppm [2]?
Its pest or weed control at 200 ppm is ≥ 80%.

And the pest or weed control at 200 ppm [3]?
Its pest or weed control at 200 ppm is ≥ 80%.

What does the source list for `CCOC(=O)c1cnn(Cc2ccc(-c3noc(C(F)(F)F)n3)cc2)c1C(F)F` [Compound 1.205, ethyl 5-(difluoromethyl)-1-[[4-[5-(trifluoromethyl)-1,2,4-oxadiazol-3-yl]phenyl]methyl]pyrazole-4-carboxylate]?
inhibition of growth at 20 ppm [1]: ≥ 80%; pest or weed control at 200 ppm [2]: ≥ 80%

For `FC(F)(F)c1nc(-c2ccc(Cn3cnc(SCc4ccccc4)n3)cc2)no1` [Compound 1.212, 3-[4-[(3-benzylsulfanyl-1,2,4-triazol-1-yl)methyl]phenyl]-5-(trifluoromethyl)-1,2,4-oxadiazole], which inhibition of growth at 20 ppm [1] is on record?
The inhibition of growth at 20 ppm was ≥ 80%.

And the pest or weed control at 200 ppm [2]?
Its pest or weed control at 200 ppm is ≥ 80%.

What about the pest or weed control at 200 ppm [3] of the same compound?
Its pest or weed control at 200 ppm is ≥ 80%.

Which results are given for `COc1ccc(-c2cc(C=O)n(Cc3ccc(-c4noc(C(F)(F)F)n4)cc3)n2)cc1` [Compound 1.223, 5-(4-methoxyphenyl)-2-[[4-[5-(trifluoromethyl)-1,2,4-oxadiazol-3-yl]phenyl]methyl]pyrazole-3-carbaldehyde]?
inhibition of growth at 20 ppm [1]: ≥ 80%; pest or weed control at 200 ppm [2]: ≥ 80%

Which results are given for `CCCc1c(C(=O)OCC)ncn1Cc1ccc(-c2noc(C(F)(F)F)n2)cc1` [Compound 1.224, ethyl 5-propyl-1-[[4-[5-(trifluoromethyl)-1,2,4-oxadiazol-3-yl]phenyl]methyl]imidazole-4-carboxylate]?
inhibition of growth at 20 ppm [1]: ≥ 80%; pest or weed control at 200 ppm [2]: ≥ 80%; pest or weed control at 200 ppm [3]: ≥ 80%

With `O=Cc1ccc(-c2nnn(Cc3ccc(-c4noc(C(F)(F)F)n4)cc3)n2)cc1` [Compound 1.227, 4-[2-[[4-[5-(trifluoromethyl)-1,2,4-oxadiazol-3-yl]phenyl]methyl]tetrazol-5-yl]benzaldehyde] as the compound, how does the inhibition of growth at 20 ppm [1] read?
The inhibition of growth at 20 ppm was ≥ 80%.

And the pest or weed control at 200 ppm [2]?
The pest or weed control at 200 ppm was ≥ 80%.

Which results are given for `N#Cc1nn(Cc2ccc(-c3noc(C(F)(F)F)n3)cc2)c2ccccc12` [Compound 1.228, 1-[[4-[5-(trifluoromethyl)-1,2,4-oxadiazol-3-yl]phenyl]methyl]indazole-3-carbonitrile]?
inhibition of growth at 20 ppm [1]: ≥ 80%; pest or weed control at 200 ppm [2]: ≥ 80%

What does the source list for `N#Cc1nnn(Cc2ccc(-c3noc(C(F)(F)F)n3)cc2)c1-c1c(F)cccc1F` [Compound 1.240, 5-(2,6-difluorophenyl)-1-[[4-[5-(trifluoromethyl)-1,2,4-oxadiazol-3-yl]phenyl]methyl]triazole-4-carbonitrile]?
inhibition of growth at 20 ppm [1]: ≥ 80%; pest or weed control at 200 ppm [2]: ≥ 80%; pest or weed control at 200 ppm [3]: ≥ 80%
